Laboratory results from PubChem BioAssay AID256 (DTP/NCI, 2004).
Values joined by “and” are separate entries in the source; they are usually repeats but may differ in a detail not shown here. Equal entries are not always repeated. Inconclusive results and toxic doses are left out.

Tested on: CD2F1 mice, L1210 leukemia ip, survival T/C
Test: NCI In Vivo Anticancer Drug Screen. Data for tumor model L1210 Leukemia (intraperitoneal) in CD2F1 (CDF1) mice
Settings: higher = longer survival
Procedure, shortened: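 Each value reflects a quotient of treated over vehicle control outcomes in mice with a transplanted tumor.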

[1] = endpoint: mean survival time, dose: 100.0 mg/kg/injection, schedule: Q04DX003 (ip), vehicle: saline with Tween-80
[2] = endpoint: mean survival time, dose: 200.0 mg/kg/injection, schedule: Q04DX003 (ip), vehicle: saline with Tween-80
[3] = endpoint: mean survival time, dose: 400.0 mg/kg/injection, schedule: Q04DX003 (ip), vehicle: saline with Tween-80
[4] = endpoint: mean survival time, dose: 25.0 mg/kg/injection, schedule: Q04DX003 (ip), vehicle: Klucel (hydroxypropylcellulose) (HPC)
[5] = endpoint: mean survival time, dose: 50.0 mg/kg/injection, schedule: Q04DX003 (ip), vehicle: Klucel (hydroxypropylcellulose) (HPC)
[6] = endpoint: mean survival time, dose: 100.0 mg/kg/injection, schedule: Q01DX009 (ip), vehicle: saline with Tween-80
[7] = endpoint: mean survival time, dose: 100.0 mg/kg/injection, schedule: Q01DX001 (ip), vehicle: saline
[8] = endpoint: mean survival time, dose: 200.0 mg/kg/injection, schedule: Q01DX001 (ip), vehicle: saline

Q: How did the T/C (endpoint: mean survival time, dose: 5.0 mg/kg/injection, schedule: Q01DX009 (ip), vehicle: saline with Tween-80) turn out when `C=CCc1cccc(OC)c1OCCN(CC)CC` was run?
A: 102 % of control

Q: What about the T/C (endpoint: mean survival time, dose: 5.0 mg/kg/injection, schedule: Q04DX003 (ip), vehicle: saline with Tween-80) of the same compound?
A: 94 % of control

Q: What about the T/C (endpoint: mean survival time, dose: 10.0 mg/kg/injection, schedule: Q01DX009 (ip), vehicle: saline with Tween-80) of the same compound?
A: 96 % of control

Q: And the T/C (endpoint: mean survival time, dose: 10.0 mg/kg/injection, schedule: Q04DX003 (ip), vehicle: saline with Tween-80)?
A: 96 % of control

Q: What about the T/C (endpoint: mean survival time, dose: 20.0 mg/kg/injection, schedule: Q01DX009 (ip), vehicle: saline with Tween-80) of the same compound?
A: 91 % of control

Q: And the T/C (endpoint: mean survival time, dose: 20.0 mg/kg/injection, schedule: Q04DX003 (ip), vehicle: saline with Tween-80)?
A: 96 % of control

Q: For `Nc1nc(Cl)nc(Cl)n1`, which T/C (endpoint: mean survival time, dose: 12.5 mg/kg/injection, schedule: Q01DX001 (ip), vehicle: saline with Tween-80) is on record?
A: 102 % of control

Q: And the T/C (endpoint: mean survival time, dose: 25.0 mg/kg/injection, schedule: Q01DX001 (ip), vehicle: saline with Tween-80)?
A: 105 % of control

Q: And the T/C (endpoint: mean survival time, dose: 50.0 mg/kg/injection, schedule: Q01DX001 (ip), vehicle: saline with Tween-80)?
A: 100 % of control

Q: `O=C(Nc1ccc(C2=NCCN2)cc1)Nc1cccc(NC(=O)Nc2ccc(C3=NCCN3)cc2)c1` was tested. Which T/C (endpoint: mean survival time, dose: 1.8 mg/kg/injection, schedule: Q01DX008 (iv), vehicle: other) did it give?
A: 103 % of control

Q: And the T/C (endpoint: mean survival time, dose: 3.75 mg/kg/injection, schedule: Q01DX008 (iv), vehicle: other)?
A: 103 % of control

Q: What does the source list for `FC(F)(F)c1ccc2nc(CI)c(CI)nc2c1`?
A: T/C (endpoint: mean survival time, dose: 1.5 mg/kg/injection, schedule: Q01DX009 (ip), vehicle: saline with Tween-80): 104 % of control; T/C (endpoint: mean survival time, dose: 3.0 mg/kg/injection, schedule: Q01DX009 (ip), vehicle: saline with Tween-80): 110 % of control; T/C (endpoint: mean survival time, dose: 6.0 mg/kg/injection, schedule: Q01DX009 (ip), vehicle: saline with Tween-80): 96 % of control; T/C (endpoint: mean survival time, dose: 12.0 mg/kg/injection, schedule: Q01DX009 (ip), vehicle: saline with Tween-80): 104 % of control; T/C (endpoint: mean survival time, dose: 24.0 mg/kg/injection, schedule: Q01DX009 (ip), vehicle: saline with Tween-80): 88 % of control

Q: `[O-]/[N+](=C\c1ccccc1)c1ccccc1` was tested. Which T/C [1] did it give?
A: 97 % of control

Q: And the T/C [2]?
A: 90 % of control

Q: Which T/C [1] does the source give for `O=C1CC(c2ccccc2)CC(=O)O1` here?
A: 102 % of control

Q: What about the T/C [2] of the same compound?
A: 100 % of control

Q: And the T/C [3]?
A: 92 % of control

Q: `COc1ccc(/C=C/C(=O)c2ccc(OC)c(OC)c2)cc1OC` was tested. Which T/C [1] did it give?
A: 96 % of control

Q: What about the T/C [2] of the same compound?
A: 101 % of control

Q: What about the T/C [3] of the same compound?
A: 98 % of control

Q: Which T/C (endpoint: mean survival time, dose: 12.5 mg/kg/injection, schedule: Q04DX003 (ip), vehicle: Klucel (hydroxypropylcellulose) (HPC)) does the source give for `N#CSc1ccc(Nc2ccc(SC#N)cc2)cc1` here?
A: 113 % of control

Q: And the T/C [4]?
A: 109 % of control

Q: And the T/C [5]?
A: 107 % of control

Q: What does the source list for `Cn1c(=S)sc2ccccc21`?
A: T/C [4]: 101 % of control; T/C [5]: 109 % of control; T/C [1]: 110 % of control

Q: For `CC1CC=CCC1/C=N\Nc1ccc([N+](=O)[O-])cc1[N+](=O)[O-]` (stereo unspecified), which T/C [1] is on record?
A: 98 % of control

Q: What about the T/C [2] of the same compound?
A: 94 % of control

Q: And the T/C [3]?
A: 100 % of control

Q: For `CC(C)C1=CC23CCC4C(C)(C(=O)O)CCCC4(C)C2CC13` (stereo unspecified), which T/C [1] is on record?
A: 103 % of control

Q: What about the T/C [2] of the same compound?
A: 97 % of control

Q: And the T/C [3]?
A: 97 % of control

Q: Which T/C (endpoint: mean survival time, dose: 6.25 mg/kg/injection, schedule: Q04DX003 (ip), vehicle: distilled water + Tween-80) does the source give for `[Cl][Pt+2][Cl].[NH-]C1CCCCC1C1CCCCC1[NH-]` (stereo unspecified) here?
A: 123 % of control

Q: What about the T/C (endpoint: mean survival time, dose: 25.0 mg/kg/injection, schedule: Q04DX003 (ip), vehicle: distilled water + Tween-80) of the same compound?
A: 173 % of control

Q: What about the T/C (endpoint: mean survival time, dose: 100.0 mg/kg/injection, schedule: Q04DX003 (ip), vehicle: distilled water + Tween-80) of the same compound?
A: 86 % of control

Q: Which results are given for `NC(=O)C1=C2CCCc3cccc(c32)C1=O`?
A: T/C [6]: 94 % of control; T/C [1]: 99 % of control; T/C (endpoint: mean survival time, dose: 200.0 mg/kg/injection, schedule: Q01DX009 (ip), vehicle: saline with Tween-80): 94 % of control; T/C [2]: 100 % of control; T/C (endpoint: mean survival time, dose: 400.0 mg/kg/injection, schedule: Q01DX009 (ip), vehicle: saline with Tween-80): 97 % of control; T/C [3]: 87 % of control

Q: Which results are given for `O=S1(=O)N=C2C3CCN(CC3)C2C(c2ccccc2)N1` (stereo unspecified)?
A: T/C (endpoint: mean survival time, dose: 50.0 mg/kg/injection, schedule: Q01DX001 (ip), vehicle: saline): 94 % of control; T/C [7]: 101 % of control; T/C [8]: 101 % of control

Q: What does the source list for `N=C(N)c1nn(C2OC(CO)C(O)C2O)c2nc[nH]c(=O)c12` (stereo unspecified)?
A: T/C (endpoint: median survival time, dose: 3.12 mg/kg/injection, schedule: Q01DX005 (ip), vehicle: Klucel + Tween-80): 122 % of control; T/C (endpoint: median survival time, dose: 12.5 mg/kg/injection, schedule: Q01DX005 (ip), vehicle: Klucel + Tween-80): 153 % of control; T/C (endpoint: median survival time, dose: 25.0 mg/kg/injection, schedule: Q01DX005 (ip), vehicle: Klucel + Tween-80): 120 % of control and 89 % of control

Q: How did the T/C [7] turn out when `CCCN(CCC)S(=O)(=O)c1ccc(NC(=O)OC(CC)c2ccco2)cc1` (stereo unspecified) was run?
A: 94 % of control

Q: And the T/C [8]?
A: 95 % of control

Q: What about the T/C (endpoint: mean survival time, dose: 400.0 mg/kg/injection, schedule: Q01DX001 (ip), vehicle: saline) of the same compound?
A: 94 % of control

Q: `C/C([O-])=N\[N+](C)(C)Cc1ccccc1` was tested. Which T/C (endpoint: mean survival time, dose: 100.0 mg/kg/injection, schedule: Q01DX001 (ip), vehicle: saline with Tween-80) did it give?
A: 95 % of control

Q: And the T/C (endpoint: mean survival time, dose: 200.0 mg/kg/injection, schedule: Q01DX001 (ip), vehicle: saline with Tween-80)?
A: 98 % of control

Q: And the T/C (endpoint: mean survival time, dose: 400.0 mg/kg/injection, schedule: Q01DX001 (ip), vehicle: saline with Tween-80)?
A: 102 % of control

Q: Which results are given for `COc1cc2c(cc1OC)C1CC(O)C3CCCCC3N1CC2` (stereo unspecified)?
A: T/C [1]: 93 % of control; T/C [2]: 93 % of control

Q: Which T/C (endpoint: mean survival time, dose: 12.5 mg/kg/injection, schedule: Q01DX009 (ip), vehicle: other) does the source give for `CC1(C)C(=O)C(Br)=Cc2ccccc21` here?
A: 105 % of control

Q: What about the T/C (endpoint: mean survival time, dose: 25.0 mg/kg/injection, schedule: Q01DX009 (ip), vehicle: other) of the same compound?
A: 100 % of control

Q: And the T/C (endpoint: mean survival time, dose: 50.0 mg/kg/injection, schedule: Q01DX009 (ip), vehicle: other)?
A: 111 % of control

Q: And the T/C (endpoint: mean survival time, dose: 100.0 mg/kg/injection, schedule: Q01DX009 (ip), vehicle: other)?
A: 108 % of control

Q: And the T/C (endpoint: mean survival time, dose: 200.0 mg/kg/injection, schedule: Q01DX009 (ip), vehicle: other)?
A: 105 % of control

Q: With `Cc1c2cc(Cl)c3ccccc3c2c[n+]2ccccc12` as the compound, how does the T/C (endpoint: mean survival time, dose: 3.12 mg/kg/injection, schedule: Q01DX009 (ip), vehicle: saline with Tween-80) read?
A: 102 % of control and 106 % of control

Q: And the T/C (endpoint: mean survival time, dose: 6.25 mg/kg/injection, schedule: Q01DX009 (ip), vehicle: saline with Tween-80)?
A: 100 % of control and 109 % of control

Q: And the T/C (endpoint: mean survival time, dose: 12.5 mg/kg/injection, schedule: Q01DX009 (ip), vehicle: saline with Tween-80)?
A: 118 % of control and 102 % of control

Q: And the T/C (endpoint: mean survival time, dose: 25.0 mg/kg/injection, schedule: Q01DX009 (ip), vehicle: saline with Tween-80)?
A: 114 % of control and 104 % of control

Q: And the T/C (endpoint: mean survival time, dose: 50.0 mg/kg/injection, schedule: Q01DX009 (ip), vehicle: saline with Tween-80)?
A: 114 % of control and 110 % of control

Q: And the T/C [6]?
A: 124 % of control and 102 % of control

Q: With `O=C1OCCC1n1ccc(=O)[nH]c1=O` (stereo unspecified) as the compound, how does the T/C (endpoint: mean survival time, dose: 100.0 mg/kg/injection, schedule: Q04DX003 (ip), vehicle: Klucel (hydroxypropylcellulose) (HPC)) read?
A: 102 % of control

Q: What about the T/C (endpoint: mean survival time, dose: 200.0 mg/kg/injection, schedule: Q04DX003 (ip), vehicle: Klucel (hydroxypropylcellulose) (HPC)) of the same compound?
A: 96 % of control

Q: And the T/C (endpoint: mean survival time, dose: 400.0 mg/kg/injection, schedule: Q04DX003 (ip), vehicle: Klucel (hydroxypropylcellulose) (HPC))?
A: 102 % of control

Q: With `O=C(CCCl)c1ccc2c(c1)OCO2` as the compound, how does the T/C [7] read?
A: 104 % of control

Q: What about the T/C [8] of the same compound?
A: 96 % of control

Q: Which results are given for `Nc1ccn(C2OC(CO)C(O)C2Br)c(=O)n1` (stereo unspecified)?
A: T/C (endpoint: median survival time, dose: 12.5 mg/kg/injection, schedule: Q01DX005 (ip), vehicle: saline): 108 % of control; T/C (endpoint: median survival time, dose: 25.0 mg/kg/injection, schedule: Q01DX005 (ip), vehicle: saline): 107 % of control; T/C (endpoint: median survival time, dose: 50.0 mg/kg/injection, schedule: Q01DX005 (ip), vehicle: Klucel (hydroxypropylcellulose) (HPC)): 118 % of control; T/C (endpoint: median survival time, dose: 50.0 mg/kg/injection, schedule: Q01DX005 (ip), vehicle: saline): 119 % of control; T/C (endpoint: median survival time, dose: 200.0 mg/kg/injection, schedule: Q01DX005 (ip), vehicle: saline): 150 % of control

Q: With `Nc1nc(S)c(N)c(=S)[nH]1` as the compound, how does the T/C (endpoint: mean survival time, dose: 75.0 mg/kg/injection, schedule: Q01DX001 (ip), vehicle: carboxymethylcellulose (CMC)) read?
A: 102 % of control
